Test results as given in ChEMBL document CHEMBL1147101, “Development and persistence of antimicrobial resistance in Pseudomonas aeruginosa: a longitudinal observation in mechanically ventilated patients” (Antimicrob Agents Chemother, 2007).
Calls of active or inactive are those of the source. The calls are words filed in the database; no cut-off is given here.

Key:
Format in all cases: functional, organism-based
Conditions in all cases: Trachea
[1] = test system: Pseudomonas aeruginosa; assay: Antimicrobial activity against Pseudomonas aeruginosa 65.38-3 tracheal isolates from mechanically ventilated tuberculosis patient
[2] = test system: Pseudomonas aeruginosa; assay: Antimicrobial activity against Pseudomonas aeruginosa 65.38-4 tracheal isolates from mechanically ventilated tuberculosis patient
[3] = test system: Pseudomonas aeruginosa; assay: Antimicrobial activity against Pseudomonas aeruginosa 13D11 tracheal isolates from mechanically ventilated chronic respiratory insufficiency patient
[4] = test system: Pseudomonas aeruginosa; assay: Antimicrobial activity against Pseudomonas aeruginosa 15G10 tracheal isolates from mechanically ventilated chronic respiratory insufficiency patient
[5] = test system: Pseudomonas aeruginosa; assay: Antimicrobial activity against Pseudomonas aeruginosa 65.68-3 tracheal isolates from mechanically ventilated tuberculosis patient
[6] = test system: Pseudomonas aeruginosa; assay: Antimicrobial activity against Pseudomonas aeruginosa 13D3 tracheal isolates from mechanically ventilated chronic respiratory insufficiency patient
[7] = test system: Pseudomonas aeruginosa; assay: Antimicrobial activity against Pseudomonas aeruginosa 13D6 tracheal isolates from mechanically ventilated chronic respiratory insufficiency patient
[8] = test system: Pseudomonas aeruginosa; assay: Antimicrobial activity against Pseudomonas aeruginosa 16D2 tracheal isolates from mechanically ventilated chronic respiratory insufficiency patient
[9] = test system: Pseudomonas aeruginosa; assay: Antimicrobial activity against Pseudomonas aeruginosa 16D5 tracheal isolates from mechanically ventilated chronic respiratory insufficiency patient
[10] = test system: Pseudomonas aeruginosa; assay: Antimicrobial activity against Pseudomonas aeruginosa 19B1 tracheal isolates from mechanically ventilated chronic respiratory insufficiency patient
[11] = test system: Pseudomonas aeruginosa; assay: Antimicrobial activity against Pseudomonas aeruginosa 19C2 tracheal isolates from mechanically ventilated chronic respiratory insufficiency patient
[12] = test system: Pseudomonas aeruginosa; assay: Antimicrobial activity against Pseudomonas aeruginosa 19C5 tracheal isolates from mechanically ventilated chronic respiratory insufficiency patient
[13] = test system: Pseudomonas aeruginosa; assay: Antimicrobial activity against Pseudomonas aeruginosa 19C12 tracheal isolates from mechanically ventilated chronic respiratory insufficiency patient
[14] = test system: Pseudomonas aeruginosa; assay: Antimicrobial activity against Pseudomonas aeruginosa 19D10 tracheal isolates from mechanically ventilated chronic respiratory insufficiency patient
[15] = test system: Pseudomonas aeruginosa; assay: Antimicrobial activity against Pseudomonas aeruginosa 5F8 tracheal isolates from mechanically ventilated chronic respiratory insufficiency patient
[16] = test system: Pseudomonas aeruginosa; assay: Antimicrobial activity against Pseudomonas aeruginosa 9A7 tracheal isolates from mechanically ventilated chronic respiratory insufficiency patient
[17] = test system: Pseudomonas aeruginosa; assay: Antimicrobial activity against Pseudomonas aeruginosa 9B2 tracheal isolates from mechanically ventilated chronic respiratory insufficiency patient
[18] = test system: Pseudomonas aeruginosa; assay: Antimicrobial activity against Pseudomonas aeruginosa 10B1 tracheal isolates from mechanically ventilated chronic respiratory insufficiency patient
[19] = test system: Pseudomonas aeruginosa; assay: Antimicrobial activity against Pseudomonas aeruginosa 29H1 tracheal isolates from mechanically ventilated chronic respiratory insufficiency patient
[20] = test system: Pseudomonas aeruginosa; assay: Antimicrobial activity against Pseudomonas aeruginosa 19E1 tracheal isolates from mechanically ventilated chronic respiratory insufficiency patient
[21] = test system: Pseudomonas aeruginosa; assay: Antimicrobial activity against Pseudomonas aeruginosa 19E12 tracheal isolates from mechanically ventilated chronic respiratory insufficiency patient
[22] = test system: Pseudomonas aeruginosa; assay: Antimicrobial activity against Pseudomonas aeruginosa 19F1 tracheal isolates from mechanically ventilated chronic respiratory insufficiency patient
[23] = test system: Pseudomonas aeruginosa; assay: Antimicrobial activity against Pseudomonas aeruginosa 19F2 tracheal isolates from mechanically ventilated chronic respiratory insufficiency patient
[24] = test system: Pseudomonas aeruginosa; assay: Antimicrobial activity against Pseudomonas aeruginosa 22D9 tracheal isolates from mechanically ventilated chronic respiratory insufficiency patient
[25] = test system: Pseudomonas aeruginosa; assay: Antimicrobial activity against Pseudomonas aeruginosa 22E1 tracheal isolates from mechanically ventilated chronic respiratory insufficiency patient
[26] = test system: Pseudomonas aeruginosa; assay: Antimicrobial activity against Pseudomonas aeruginosa 22E3 tracheal isolates from mechanically ventilated chronic respiratory insufficiency patient
[27] = test system: Pseudomonas aeruginosa; assay: Antimicrobial activity against Pseudomonas aeruginosa 22C5 tracheal isolates from mechanically ventilated chronic respiratory insufficiency patient
[28] = test system: Pseudomonas aeruginosa; assay: Antimicrobial activity against Pseudomonas aeruginosa 24D5 tracheal isolates from mechanically ventilated chronic respiratory insufficiency patient
[29] = test system: Pseudomonas aeruginosa; assay: Antimicrobial activity against Pseudomonas aeruginosa 24E1 tracheal isolates from mechanically ventilated chronic respiratory insufficiency patient
[30] = test system: Pseudomonas aeruginosa; assay: Antimicrobial activity against Pseudomonas aeruginosa 24E2 tracheal isolates from mechanically ventilated chronic respiratory insufficiency patient
[31] = test system: Pseudomonas aeruginosa; assay: Antimicrobial activity against Pseudomonas aeruginosa 24E6 tracheal isolates from mechanically ventilated chronic respiratory insufficiency patient
[32] = test system: Pseudomonas aeruginosa; assay: Antimicrobial activity against Pseudomonas aeruginosa 23C5 tracheal isolates from mechanically ventilated chronic respiratory insufficiency patient
[33] = test system: Pseudomonas aeruginosa; assay: Antimicrobial activity against Pseudomonas aeruginosa 65.33-3 tracheal isolates from mechanically ventilated tuberculosis patient
[34] = test system: Pseudomonas aeruginosa; assay: Antimicrobial activity against Pseudomonas aeruginosa 65.36-3 tracheal isolates from mechanically ventilated tuberculosis patient
[35] = test system: Pseudomonas aeruginosa; assay: Antimicrobial activity against Pseudomonas aeruginosa 65.38-1 tracheal isolates from mechanically ventilated tuberculosis patient
[36] = test system: Pseudomonas aeruginosa; assay: Antimicrobial activity against Pseudomonas aeruginosa 65.38-2 tracheal isolates from mechanically ventilated tuberculosis patient
[37] = test system: Pseudomonas aeruginosa; assay: Antimicrobial activity against Pseudomonas aeruginosa 1C9 tracheal isolates from mechanically ventilated tuberculosis patient
[38] = test system: Pseudomonas aeruginosa; assay: Antimicrobial activity against Pseudomonas aeruginosa 2A1 tracheal isolates from mechanically ventilated tuberculosis patient
[39] = test system: Pseudomonas aeruginosa; assay: Antimicrobial activity against Pseudomonas aeruginosa 2B5 tracheal isolates from mechanically ventilated tuberculosis patient
[40] = test system: Pseudomonas aeruginosa; assay: Antimicrobial activity against Pseudomonas aeruginosa 24D1 tracheal isolates from mechanically ventilated chronic respiratory insufficiency patient
[41] = test system: Pseudomonas aeruginosa; assay: Antimicrobial activity against Pseudomonas aeruginosa 24F4 tracheal isolates from mechanically ventilated chronic respiratory insufficiency patient
[42] = test system: Pseudomonas aeruginosa; assay: Antimicrobial activity against Pseudomonas aeruginosa 65.18-1 tracheal isolates from mechanically ventilated tuberculosis patient
[43] = test system: Pseudomonas aeruginosa; assay: Antimicrobial activity against Pseudomonas aeruginosa 65.18-2 tracheal isolates from mechanically ventilated tuberculosis patient
[44] = test system: Pseudomonas aeruginosa; assay: Antimicrobial activity against Pseudomonas aeruginosa 65.18-3 tracheal isolates from mechanically ventilated tuberculosis patient
[45] = test system: Pseudomonas aeruginosa; assay: Antimicrobial activity against Pseudomonas aeruginosa 65.18-4 tracheal isolates from mechanically ventilated tuberculosis patient
[46] = test system: Pseudomonas aeruginosa; assay: Antimicrobial activity against Pseudomonas aeruginosa IA5 tracheal isolates from mechanically ventilated tuberculosis patient
[47] = test system: Pseudomonas aeruginosa; assay: Antimicrobial activity against Pseudomonas aeruginosa IC7 tracheal isolates from mechanically ventilated tuberculosis patient
[48] = test system: Pseudomonas aeruginosa; assay: Antimicrobial activity against Pseudomonas aeruginosa 65.33-1 tracheal isolates from mechanically ventilated tuberculosis patient

Compound: GENTAMICIN
- Activity [1]: inactive
- Activity [2]: inactive
- Activity [3]: Active
- Activity [4]: Active
- Activity [5]: inactive
- Activity [6]: Active
- Activity [7]: Active
- Activity [8]: Active
- Activity [9]: Active
- Activity [10]: Active
- Activity [11]: Active
- Activity [12]: Active
- Activity [13]: Active
- Activity [14]: Active
- Activity [15]: Active
- Activity [16]: Active
- Activity [17]: Active
- Activity [18]: Active
- Activity [19]: Active
- Activity [20]: Active
- Activity [21]: Active
- Antimicrobial activity [22]: Active
- Activity [23]: Active
- Activity [24]: Active
- Activity [25]: Active
- Activity [26]: Active
- Activity [27]: Active
- Activity [28]: Active
- Activity [29]: Active
- Activity [30]: Active
- Activity [31]: Active
- Activity [32]: Active
- Activity [33]: inactive
- Activity [34]: inactive
- Activity [35]: inactive
- Activity [36]: inactive

Compound: CCn1cc(C(=O)O)c(=O)c2cc(F)c(N3CCNCC3)cc21
- Activity [1]: Active
- Activity [2]: Active
- Activity [37]: Active
- Activity [3]: Active
- Activity [38]: Active
- Activity [39]: Active
- Activity [5]: Active
- Activity [9]: Active
- Activity [12]: Active
- Activity [15]: Active
- Activity [16]: Active
- Activity [17]: Active
- Activity [18]: Active
- Activity [19]: inactive
- Activity [24]: Active
- Activity [25]: Active
- Activity [26]: Active
- Activity [27]: Active
- Activity [40]: Active
- Activity [28]: inactive
- Activity [41]: Active
- Activity [42]: Active
- Activity [43]: Active
- Activity [44]: Active
- Activity [45]: Active
- Activity [46]: Active
- Activity [47]: Active
- Activity [48]: Active
- Activity [33]: Active
- Activity [34]: Active
- Activity [35]: Active
- Activity [36]: Active

Compound: CC(C)(O/N=C(\C(=O)N[C@@H]1C(=O)N2C(C(=O)[O-])=C(C[n+]3ccccc3)CS[C@H]12)c1csc(N)n1)C(=O)O
- Activity [1]: inactive
- Activity [3]: Active
- Activity [4]: Active
- Activity [39]: Active
- Activity [5]: Active
- Activity [6]: Active
- Activity [7]: Active
- Activity [8]: Active
- Activity [9]: Active
- Activity [10]: Active
- Activity [11]: Active
- Activity [13]: Active
- Activity [14]: Active
- Activity [15]: Active
- Activity [16]: Active
- Activity [17]: Active
- Activity [18]: Active
- Activity [20]: Active
- Activity [21]: Active
- Antimicrobial activity [22]: Active
- Activity [23]: Active
- Activity [24]: Active
- Activity [25]: Active
- Activity [26]: Active
- Activity [27]: Active
- Activity [40]: Active
- Activity [28]: Active
- Activity [29]: Active
- Activity [30]: Active
- Activity [31]: Active
- Activity [32]: Active
- Activity [41]: Active
- Activity [42]: Active
- Activity [43]: Active
- Activity [44]: Active
- Activity [45]: Active
- Activity [46]: Active
- Activity [47]: Active
- Activity [48]: Active
- Activity [34]: Active
- Activity [35]: inactive
